Results published in US20040018150A1, “Prodrugs of phosphonate nucleotide analogues and methods for selecting and making same” (priority 2003, published 2004).
Like-named read-outs stand apart in the source and are kept apart here.

Assays:
MT-2 cells [1] = assay: Cytotoxicity in MT-2 cells; details: cell culture
HIV-1 [2] = test system: HIV-1
MT-2 cells [3] = test system: MT-2 cells
HIV-1 [4] = details: anti-HIV-1; from Mulato and Cherrington, Antiviral Research 36, 91 (1997); cited from earlier work
HIV-1 [5] = assay: microbe, parasite or virus in culture
[6] = for PMPA AUC in PBMC Mean / PMPA AUC in Plasma Mean: dog, in vivo, po; for PBMC/Plasma Exposure Ratio / Prodrug in Plasma: dogs, oral, 10 mg-equivalent of PMPA/kg
Method: Formulations. The prodrugs were formulated as solutions in 50 mM citric acid within 0.5 hour prior to dose. All compounds used in the studies were synthesized by Gilead Sciences. The following lots were used:
Dose Administration and Sample Collection. The in-life phase of this study was conducted in accordance with the recommendations of the “Guide for the Care and Use of Laboratory Animals” (National Institutes of Health publication 86-23) and was approved by an Institutional Animal Care and Use Committee. Fasted male beagle dogs (10±2 kg) were used for the studies. Each drug was administered as a single dose by oral gavage (1.5-2 ml/kg). The dose was 10 mg-equivalent of PMPA/kg. For PBMCs, blood samples were collected at 0 (pre-dose), 2,8, and 24 h post-dose. […] Blood (1.0 ml) was processed immediately for plasma by centrifugation at 2,000 rpm for 10 min. Plasma samples were frozen and maintained at […] until analyzed.
Peripheral Blood Mononuclear Cell (PBMC) preparation. Whole blood (8 ml) drawn at specified time points was mixed in equal proportion with phosphate buffered saline (PBS), layered onto 15 ml of Ficoll-Paque solution (Pharmacia Biotech,) and centrifuged at 400×g for 40 min. PBMC layer was removed and washed once with PBS. Formed PMBC pellet was reconstituted in 0.5 ml of PBS, cells were resuspended, counted using hemocytometer and maintained at […] until analyzed. The number of cells multiplied by the mean single-cell volume was used in calculation of intracellular concentrations. […] Agents Chemother.
Determination of PMPA and Prodrugs in plasma and PBMCs. […] Derivatized samples were then evaporated to dryness and reconstituted in 100 μl of water for HPLC analysis.
Before intracellular PMPA could be determined by HPLC, the large amounts of adenine related ribonucleotides present in the PBMC extracts had to be removed by selective oxidation.
The HPLC system was comprised of a P4000 solvent delivery system with AS3000 autoinjector and F2000 fluorescence detector (Tlermo Separation, San Jose, Calif.). […] The mobile phases used were: A, 5% acetonitrile in 25 mM potassium phosphate buffer with 5 mM tetrabutyl ammonium bromide (TBABr), pH 6.0; B, 60% acetonitrile in 25 mM potassium phosphate buffer with 5 mM TBABr, pH 6.0. The flow rate was 2 ml/min and the column temperature was maintained at 35° C. by a column oven. The gradient profile was 90% A/10% B for 10 min for PMPA and 65%A/35%B for 10 min for the prodrug. […] Data was acquired and stored by a laboratory data acquisition system (PeakPro, Beckman, Allendale, N.J.).
Pharmacokinetic Calculations. […] The AUC values were calculated using the trapezoidal rule.

[7] = Stability / hydrolysis in MT-2 cell extract; assay type: in vitro ADME; details: 37° C., HEPES buffer pH 7.4
Method: (§1) The in vitro metabolism and stability of separated diastereomers were determined in PLCE, MT-2 extract and human plasma. A biological sample listed below, 80 μL, was transferred into a screw-capped centrifuge tube and incubated at 37° C. for 5 min. A solution containing 0.2 mg/mL of the test compound in a suitable buffer, 20 μL, was added to the biological sample and mixed. The reaction mixture, 20 μL, was immediately sampled and mixed with 60 μL of methanol containing 0.015 mg/mL of 2-hydroxymethylnaphthalene as an internal standard for HPLC analysis. The sample was taken as the time-zero sample. Then, at specific time points, the reaction mixture, 20 μL, was sampled and mixed with 60 μL of methanol containing the internal standard. The mixture thus obtained was centrifuged at 15,000 G for 5 min and the supernatant was analyzed with HPLC under the conditions described below.
(2) MT-2 cell extract was prepared from MT-2 cells according to the published procedure [A. Pompon, I. Lefebvre, J.-L. Imbach, S. Kahn, and D. Farquhar, “Antiviral Chemistry & Chemotherapy”, 5:91-98 (1994)] except for using HEPES buffer described below as the medium.
In the study for MT-2 cell extracts, the test compound was dissolved in HEPES buffer. HEPES buffer contains 0.010 M HEPES, 0.05 M potassium chloride, 0.005 M magnesium chloride, and 0.005 M dl-dithiothreitol. pH 7.4 at 37° C.
(§2) The HPLC analysis was carried out under the following conditions.

[8] = Stability in human plasma; assay type: in vitro ADME; details: 37° C., TBS pH 7.5
Method: as §1
(3) Human plasma (pooled normal human plasma from George King Biomedical Systems, Inc.)
In the study for human plasma, the test compound was dissolved in TBS. TBS (tris-buffered saline, Sigma) contains 0.05 M Tris, 0.0027 M potassium chloride, and 0.138 M sodium chloride. pH 7.5 at 37° C.
as §2

[9] = test system: PLCE (porcine liver carboxyesterase); assay: in vitro; assay type: in vitro ADME; details: 37° C., PBS pH 7.4
Method: as §1
(1) PLCE (porcine liver carboxyesterase from Sigma, 160 u/mg protein, 21 mg protein/mL) diluted 20 fold with PBS (phosphated-buffered saline).
In the study for PLCE, the test compound was dissolved in PBS. PBS (phosphate-buffered saline, Sigma) contains 0.01 M phosphate, 0.0027 M potassium chloride, and 0.137 M sodium chloride. pH 7.4 at 37° C.
as §2

in vitro = details: human
[10] = Incubation of radiolabeled PMPA prodrugs or PMPA in human whole blood; metabolites in plasma, PBMCs and RBCs; assay type: in vitro ADME; details: human, 1 h
Method: After 1 hour, plasma, red blood cells (RBCs) and peripheral blood mononuclear cells (PBMCs) were isolated and analyzed by HPLC with radiometric detection.

[11] = activity of diastereomer A versus B
[12] = cell culture anti-HIV-1 activity, separated diastereomers and 1:1 mixtures
[13] = Human immunodeficiency virus 1, MT2

CCOC(=O)[C@H](C)N[P@@](=O)(CO[C@H](C)Cn1cnc2c(N)ncnc21)Oc1ccccc1 (mixture of isomers) [Ala-ethyl, Phenyl PMPA, Ethyl L-Alanyl Amidate]
CC50 (MT-2 cells [1]): 60 µM | Fold change (HIV-1 [2]; IC50 relative to PMPA): 250× | A/B activity (HIV-1 [2]; [11]): 10× | IC50 (HIV-1 [2]; [12]): 0.02 µM

COC(=O)[C@H](C)NP(=O)(CO[C@H](C)Cn1cnc2c(N)ncnc21)Oc1ccccc1 (mixture of isomers) [Ala-methylester]
CC50 (MT-2 cells [3]): 80 µM | Fold change (HIV-1 [2]; IC50 relative to PMPA): 200× | A/B activity (HIV-1 [2]; [11]): 20× | IC50 (HIV-1 [2]; [12]): 0.025 µM

COC(=O)C(C)NP(=O)(COC(C)Cn1cnc2c(N)ncnc21)Oc1ccccc1 (single isomer, unassigned) [GS-6957a]
Fold change (HIV-1 [2]): 670× | IC50 (HIV-1 [2]): 0.0075 µM

COC(=O)[C@H](C)NP(=O)(CO[C@H](C)Cn1cnc2c(N)ncnc21)Oc1ccccc1 (single isomer, unassigned) [GS-6957b]
Fold change (HIV-1 [2]): 33× | IC50 (HIV-1 [2]): 0.15 µM

COC(=O)C(Cc1ccccc1)NP(=O)(COC(C)Cn1cnc2c(N)ncnc21)Oc1ccccc1 (single isomer, unassigned) [GS-7003a]
Fold change (HIV-1 [2]): 500× | IC50 (HIV-1 [2]): 0.01 µM

COC(=O)C(Cc1ccccc1)NP(=O)(COC(C)Cn1cnc2c(N)ncnc21)Oc1ccccc1 (single isomer, unassigned) [GS-7003b]
Fold change (HIV-1 [2]): 50× | IC50 (HIV-1 [2]): 0.1 µM

CCOC(=O)CNP(=O)(CO[C@H](C)Cn1cnc2c(N)ncnc21)Oc1ccccc1 (single isomer, unassigned) [GS-7335]
Fold change (HIV-1 [2]): 5× | IC50 (HIV-1 [2]): 1 µM

CCOC(=O)[C@H](CC)NP(=O)(CO[C@H](C)Cn1cnc2c(N)ncnc21)Oc1ccccc1 (stereo partly drawn) [ABA-ethyl]
CC50 (MT-2 cells [1]): > 100 µM | A/B activity (HIV-1 [2]): 7.5× | Fold change (HIV-1 [2]): 625× | IC50 (HIV-1 [2]): 0.008 µM

Cc1cn([C@H]2C[C@H](N=[N+]=[N-])[C@@H](CO)O2)c(=O)[nH]c1=O [AZT]
IC50 (HIV-1 [4]): 0.17 ± 0.08 µM

Nc1ncnc2c1ncn2CCOCP(=O)(O)O [Adefovir (PMEA), 9-[2-(phosphonomethoxy)ethyl]adenine]
IC50 (HIV-1 [4]): 13.4 ± 4.2 µM

CC(C)OC(=O)[C@H](C)NP(=O)(CO[C@H](C)Cn1cnc2c(N)ncnc21)Oc1ccccc1 (stereo partly drawn) [Ala-isopropyl]
IC50 (HIV-1 [5]; [13]): 0.01 µM | A/B activity (HIV-1 [2]; [11]): 12×

Nc1ccn([C@@H]2CS[C@H](CO)O2)c(=O)n1 [Compound 3TC]
IC50 (HIV-1 [4]): 1.8 ± 0.25 µM

CCOC(=O)CNP(=O)(CO[C@H](C)Cn1cnc2c(N)ncnc21)Oc1ccccc1 (stereo partly drawn) [GS-7119]
PMPA AUC in PBMC Mean [6]: 530 | PMPA AUC in Plasma Mean [6]: 6.11 | PBMC/Plasma Exposure Ratio [6]: 87 | Prodrug in Plasma [6]: YES | CC50 (MT-2 cells [1]): > 100 µM | Fold change (HIV-1 [2]): 100× | IC50 (HIV-1 [2]): 0.05 µM

CCOC(=O)C(CC)NP(=O)(COC(C)Cn1cnc2c(N)ncnc21)Oc1ccccc1 (stereo not drawn) [GS-7342]
PMPA AUC in PBMC Mean [6]: 1060 | PMPA AUC in Plasma Mean [6]: 4.6 | PBMC/Plasma Exposure Ratio [6]: 230 | Prodrug in Plasma [6]: YES | MT-2 extract hydrolysis product [7]: Met. X & PMPA | Human Plasma Stability (HP) product [8]: Met. Y | Human Plasma Stability (HP) t1/2 [8]: 103 | PLCE hydrolysis product [9]: Met. X | IC50 (HIV-1 [2]): 0.004 µM | Fold change (HIV-1 [2]; IC50 relative to PMPA): 1,250× | IC50 (HIV-1 [2]; read-out: HIV IC50): 0.004 µM

Cc1c(O)cccc1C(=O)N[C@@H](CSc1ccccc1)[C@H](O)CN1C[C@H]2CCCC[C@H]2C[C@H]1C(=O)NC(C)(C)C [Nelfinavir]
IC50 (HIV-1 [4]): 0.006 ± 0.002 µM

C[C@H](Cn1cnc2c(N)ncnc21)OCP(=O)(O)O [PMPA, 9-[2-(phosphonomethoxy)propyl]adenine]
CC50 (in vitro): 6000 µM | Metabolites (% of Total Peak Area): PMPApp [10]: 16% | IC50 (HIV-1 [4]): 6.3 ± 3.3 µM | IC50 (HIV-1 [5]; [13]): 5 µM | IC50 (HIV-1 [5]; Human immunodeficiency virus 1, MT2, read-out: HIV-1 Activity IC50): 5 µM | Fold change (HIV-1 [2]): 1×

COC(=O)[C@H](Cc1ccccc1)NP(=O)(CO[C@H](C)Cn1cnc2c(N)ncnc21)Oc1ccccc1 (stereo partly drawn) [Phe-methylester]
CC50 (MT-2 cells [1]): 60 µM | A/B activity (HIV-1 [2]): 10× | Fold change (HIV-1 [2]): 170× | IC50 (HIV-1 [2]): 0.03 µM

Cc1cn([C@H]2C=C[C@@H](CO)O2)c(=O)[nH]c1=O [d4T]
IC50 (HIV-1 [4]): 8 ± 2.5 µM
